In EP3515899B1, “SOLKETAL-ETHERS, PRODUCTION METHOD AND USES THEREOF” (Cepsa S.A.U., priority 2016, dated 2018):

Assay: Solubility of additives in diesel at 4°C (visual phase separation)
Format: physicochemical
Conditions: for limit of addition to diesel by solubility: conclusion from Example 2
Method: Tests for solubility in diesel at 4°C were performed with the effluent of the etherification of solketal with isobutylene. Table 1: Composition of the additive STBE
Three additives were prepared each with a different STBE/SLK ratio (1/3, 1/1 and 3/1 w/w) from […] this effluent. In turn, these additives were added to the same diesel fuel in increasing proportions (2, 10, 20, 30 and 50 % wt.).
Table 5: Results for STBE solubility in diesel at 4°C

| Structure (SMILES) | solubility in diesel at 4°C (0.5 % wt. additive in diesel) | state of additive in diesel (Fig 1) (2% in diesel, photograph) | limit of addition to diesel by solubility | solubility in diesel at 4°C (60 % wt. additive in diesel) | solubility in diesel at 4°C (75 % wt. additive in diesel) | solubility in diesel at 4°C (80 % wt. additive in diesel) |
| --- | --- | --- | --- | --- | --- | --- |
| CC1(C)OCC(CO)O1 (stereo not shown) [SLK, 2,2-dimethyl-4-hydroxymethyl-1,3-dioxolane, reference compound] | S | phase separation | ≤ 0.5 % by weight |  |  |  |
| CCC(C)(C)OCC1COC(C)(C)O1 (stereo not shown) [STAE-97, solketal-ter-amyl-ether] |  |  | not limited by its solubility with diesel | S | S | S |
